Residues, ends and D or L forms follow the SMILES beside them. No end group written: not given here. *: point of attachment. FITC = O=C1OC2(c3ccc(O)cc3Oc3cc(O)ccc32)c2ccc(NC(=S)*)cc21
What was measured:
Format in all cases: binding
[1] = target: T1, CCL18 (Homo sapiens, UniProt P55774); test: Fluorescence polarisation (anisotropy) assay; conditions: labelled peptide 50 nM, chemokine 1 μM
T1 construct: purchased Peprotech
T1 sequence (P55774 21-89): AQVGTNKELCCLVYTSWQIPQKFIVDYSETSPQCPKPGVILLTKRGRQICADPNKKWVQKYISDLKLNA
Method: (§1) FIG. 14(B). Fluorescence polarisation assay showing binding of chemokines to P672_PEP-FITC. The measured fluorescence anisotropy (y-axis) of P672_PEP-FITC (50 nM) following binding to a fixed dose (1 μM)) of CCL7, CCL8, CCL18 and CXCL1 (negative control). […] Statistical significance was determined using one-way ANOVA with Sidak's correction for multiple comparisons using Graph Pad Prism 6. **=p<0.005, ****=P<0.00005, ns=not significant.
(§2) FIG. 15(C). Displacement of P672_PEP-FITC from CCL18 by P672_PEP. In each case 100 μM (++) or […] (+) of P672_PEP was incubated with P672_PEP-FITC (50 nM)/chemokine (1 μM CCL7 and CCL18; 500 nM CCL8) and the resulting anisotropy measured. A peptide with the P672_PEP sequence scrambled ([…]) served as a negative control (P672_PEP_SCRAM; […]). Experiment carried out in triplicate where each data point is the average of one experiment carried out in technical triplicate. Mean with SEM shown and statistical significance was determined using one-way ANOVA with Sidak's correction for multiple comparisons using Graph Pad Prism 6. *=p<0.05, ***=p<0.0005, ****=P<0.00005, ns=not significant.
(§3) Fluorescence polarization assays were performed using a Clariostar (BMG Tech) plate reader with the supplied FITC excitation and emission filters using 96 half area well plates (Corning). The buffer used (FP assay buffer) was 50 mM HEPES, 150 mM NaCl, 0.1% BSA, 0.002% TWEEN-20, 0.2% DMSO, pH 7.4 and the final volume in each well was 30 μL. Polarization was converted to anisotropy using the equation A=(2*P)/(3−P) where P is polarization and A is anisotropy. For each peptide tested the gain was set to 35 mP and adjusted to a well containing fluorescent peptide only. The polarization of the emitted light in the FITC emission channel was then determined. Experiments were performed as two technical and three biological replicates. Screening of P672 peptide fragments was achieved through incubation of each peptide (50 nM) with 1 μM CCL8 (Peprotech) for 30 minutes in FP assay buffer and the resulting anisotropy of the emitted light determined as above. The chemokine cross binding screen was performed by incubating 1 μM chemokine (Peprotech) with 50 nM BK1.1FITC for half an hour in FP assay buffer and the resulting anisotropy of the emitted light determined as above. To monitor BK1.1FITC Ala mutants of binding to CCL8, 50 nM labelled peptide was incubated with varying concentrations of recombinant CCL8 (0-25 μM, final) in 30 μL FP assay buffer for 30 minutes and the resulting anisotropy of the emitted light determined as above. The anisotropy was plotted as a function of CCL8 concentration and fitted to the equation: Y=Bmax*X/(KD+X)+NS*X+Background, where Y is the measured anisotropy, X is the concentration of CCL8 added, Bmax is the maximum binding, KD is the equilibrium dissociation constant, NS is the slope of the nonlinear regression and Background is the anisotropy when no CCL8 is present, in Graph Pad Prism. Displacement assays were carried out with CCL7, CCL8, and CCL18 (Peprotech, 1 μM). […] For all FP assays, the experiments were carried out as two technical and three biological replicates.

[2] = target: T2, CCL7 (Homo sapiens, UniProt P80098); test: Fluorescence polarisation (anisotropy) assay; conditions: labelled peptide 50 nM, chemokine 1 μM
T2 construct: purchased Peprotech
T2 sequence (P80098 24-99): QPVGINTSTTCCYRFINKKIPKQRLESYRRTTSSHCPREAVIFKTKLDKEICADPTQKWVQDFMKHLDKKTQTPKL
Method: as §1, §2, §3

[3] = target: T3, CXCL1 (Homo sapiens, UniProt P09341); test: Fluorescence polarisation (anisotropy) assay; conditions: labelled peptide 50 nM, chemokine 1 μM; negative control chemokine
T3 sequence (P09341 35-107): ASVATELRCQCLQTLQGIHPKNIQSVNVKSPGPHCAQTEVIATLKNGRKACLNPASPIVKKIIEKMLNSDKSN
Method: as §1
Fluorescence polarization assays were performed using a Clariostar (BMG Tech) plate reader with the supplied FITC excitation and emission filters using 96 half area well plates (Corning). The buffer used (FP assay buffer) was 50 mM HEPES, 150 mM NaCl, 0.1% BSA, 0.002% TWEEN-20, 0.2% DMSO, pH 7.4 and the final volume in each well was 30 μL. […] The polarization of the emitted light in the FITC emission channel was then determined. […] Screening of P672 peptide fragments was achieved through incubation of each peptide (50 nM) with 1 μM CCL8 (Peprotech) for 30 minutes in FP assay buffer and the resulting anisotropy of the emitted light determined as above. The chemokine cross binding screen was performed by incubating 1 μM chemokine (Peprotech) with 50 nM BK1.1FITC for half an hour in FP assay buffer and the resulting anisotropy of the emitted light determined as above. […]

[4] = target: T4, CCL8 (Homo sapiens, UniProt P80075); test: Fluorescence polarisation (anisotropy) assay; conditions: labelled peptide 50 nM, CCL8 1 μM
T4 construct: SUMO (in-house protein only) (cleaved yes); made in house; host or cells: Escherichia coli RosettaGami 2 (DE3)
T4 sequence (P80075 24-99): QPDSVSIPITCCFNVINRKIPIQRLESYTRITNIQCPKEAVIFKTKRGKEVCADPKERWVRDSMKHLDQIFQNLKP
Text: FIG. 14. Characterisation of P672_PEP-FITC by fluorescence polarisation. […] Residue C30 was mutated to A to avoid an unpaired cysteine residue. The residues corresponding to the above peptide are wholly contained within the CCL8-binding region of P672_RHIPU transferred in the hybrid evasin P672:EVA1 (SEQ ID 76, see FIG. 5). […] (SEQ ID NO: 90). FIG. 14(A). […] The curve was fitted to the two site-total and non-specific binding model in GraphPad Prism 6. Data are shown as mean and SEM of three independent experiments, with each independent experiment performed as three technical replicates. The affinity constant Kd was calculated in GraphPad Prism from the curve fit with the standard error reported.
FIG. 14(B). […] The measured fluorescence anisotropy (y-axis) of P672_PEP-FITC (50 nM) following binding to a fixed dose (1 μM)) of CCL7, CCL8, CCL18 and CXCL1 (negative control). […] Statistical significance was determined using one-way ANOVA with Sidak's correction for multiple comparisons using Graph Pad Prism 6. **=p<0.005, ****=P<0.00005, ns=not significant.
FIG. 15(C). […] In each case 100 μM (++) or […] (+) of P672_PEP was incubated with P672_PEP-FITC (50 nM)/chemokine (1 μM CCL7 and CCL18; 500 nM CCL8) and the resulting anisotropy measured. […] Experiment carried out in triplicate where each data point is the average of one experiment carried out in technical triplicate. Mean with SEM shown and statistical significance was determined using one-way ANOVA with Sidak's correction for multiple comparisons using Graph Pad Prism 6. *=p<0.05, ***=p<0.0005, ****=P<0.00005, ns=not significant.
as §3, with “To monitor BK1.1FITC Ala mutants of binding to CCL8, 50 nM labelled peptide was incubated with varying concentrations of recombinant CCL8 (0-25 μM, final) in 30 μL FP assay buffer for 30 minutes and the resulting anisotropy of the emitted light determined as above.” left out

[5] = target: T5, His-tagged P672-biotinylated CCL3 interaction (Homo sapiens, UniProt P10147); test: AlphaScreen disruption of P672:chemokine interaction; conditions: AlphaScreen, peptide 100 μM
T5 construct: host or cells: P672: HEK293F (in-house); biotinylated CCL3: not described
T5 sequence (P10147 24-92): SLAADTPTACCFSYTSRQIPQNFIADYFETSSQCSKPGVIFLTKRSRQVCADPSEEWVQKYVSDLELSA
Method: (§4) B-D. Effect of indicated peptides at a concentration of 100 μM on a His-tagged P672-biotinylated CCL8, CCL2 or CCL3 interaction respectively using an AlphaScreen assay. In each panel. […] Data are presented as mean±s.e.m. of three independent experiments, shown as individual data points.
(§5) Data are shown as mean of two technical replicates. Curves were fitted with 4 parameters to estimate IC50.
(§6) The binding of these peptides to CCL8 was assayed by examining their ability to disrupt the P672:CCL8 interaction using an AlphaScreen assay (FIG. 20E, H). […] BK1 derivatives were tested for their ability to inhibit P672 interactions with CCL2 and CCL3 using AlphaScreen (FIG. 20 F, G, I, J).
(§7) AlphaScreen® Histidine detection kit was purchased from PerkinElmer (6760619M lot: 2457886) and the assay was set up in white bottom Proxiplate™ 384 Plus microplates (PerkinElmer) following the manufacturer's instructions. The assay buffer used was 50 mM HEPES, 150 mM NaCl, 0.1% BSA, 0.01% Tween20, 1% DMSO, pH 7.5 and the final volume in each well was 20 μL. Briefly, biotinylated chemokine (recombinant, final concentration 1.25 nM (CCL8), 5 nM (CCL2) and 2.5 nM (CCL3)) was pre-incubated at room temperature for 15 min with different concentrations of each peptide. His-tagged P672 (final concentration 2.5 nM (CCL8), 5 nM (CCL2) and 1.25 nM (CCL3)) was then added to each well and the plate was incubated at room temperature for 30 min. Finally, acceptor and donor beads were added as a 1:1 suspension in buffer to each well and the plate was further incubated at RT for 1 h. Data was obtained by reading the plate using a Pherastar FSX plate reader (excitation 680 nm, emission 570 nm) and was analysed using GraphPad Prism.

[6] = target: T6, His-tagged P672-biotinylated CCL8 interaction (Homo sapiens, UniProt P80075); test: as above; conditions: peptide 100 μM
T6 construct: SUMO (cleaved yes); biotin (enzymatic, BirA co-expression); made in house; host or cells: CCL8: Escherichia coli RosettaGami 2 (DE3); P672: HEK293F
T6 sequence (P80075 24-99): T4 sequence (P80075 24-99)
Method: as §4, §5, §6, §7

[7] = target: T7, His-tagged P672-biotinylated CCL2 interaction (Homo sapiens, UniProt P13500); test: as above; conditions: AlphaScreen, peptide 100 μM
T7 construct: host or cells: P672: HEK293F (in-house); biotinylated CCL2: not described
T7 sequence (P13500 24-99): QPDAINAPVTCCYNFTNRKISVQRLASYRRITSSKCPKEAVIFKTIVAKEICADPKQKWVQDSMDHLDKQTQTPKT
Method: as §4, §5, §6, §7

Compound | Binding to CCL18 (change in anisotropy) [1] | Binding to CCL18 (change in anisotropy) ([1]; listed as P672_PEP-FITC) | Binding to CCL7 (change in anisotropy) [2] | Binding to CCL7 (change in anisotropy) ([2]; listed as P672_PEP-FITC) | Binding to CXCL1 (change in anisotropy) [3] | Binding to CCL8 (change in anisotropy) [4] | Binding to CCL8 (change in anisotropy) ([4]; listed as BK1.1FTC) | Binding to CCL8 (change in anisotropy) ([4]; listed as P672_PEP-FITC) | Disruption of the P672-CCL3 interaction [5] | Disruption of the P672-CCL8 interaction [6] | Disruption of the P672-CCL2 interaction [7]
CC(C)[C@H](NC(=O)[C@@H]1CCCN1C(=O)[C@H](CCCCN)NC(=O)[C@H](Cc1ccccc1)NC(=O)[C@H](Cc1ccccc1)NC(=O)[C@H](CC(=O)O)NC(=O)[C@H](CCC(=O)O)NC(=O)[C@H](Cc1ccc(O)cc1)NC(=O)[C@H](CC(=O)O)NC(=O)[C@H](CCC(=O)O)NC(=O)[C@H](CC(=O)O)NC(=O)[C@H](CCC(=O)O)NC(=S)Nc1ccc2c(c1)C(=O)OC21c2ccc(O)cc2Oc2cc(O)ccc21)C(=O)N[C@H](C(=O)N[C@@H](C)C(=O)N[C@@H](Cc1ccc(O)cc1)C(=O)N[C@@H](Cc1ccccc1)C(N)=O)[C@@H](C)O [BK1.1FITC] ({FITC}-EDEDYEDFFKPVTAYF-NH2) | significant increase in anisotropy | able to bind | significant increase in anisotropy | able to bind | not | significant increase in anisotropy | increase in anisotropy | able to bind | – | – | –
Y21F32: shorter peptide Y21-F32 of P672 without the C30A mutation (YEDFFKPVTCYF-NH2) | – | – | – | – | – | – | – | – | disrupted | significantly disrupt | disrupted
